From patent US10888550B2, “Pyrazole derivatives as MALT1 inhibitors” (Janssen Pharmaceutica NV, priority 2018, dated 2021)

Columns and labels:
[1] = system: IL6 secretion, OCI-LY3 cells; experiment: Human IL6 Mesoscale assay (OCI-LY3); type: cell-based; settings: 24 h incubation
[2] = target: full-length MALT1 protein (Strep-MALT1(1-824)-His) (Homo sapiens (Human), UniProt Q9UDY8); experiment: MALT1 Biochemical Protease Assay; settings: read-out: MALT1_Biochemical activity (Ac-LRSR-amc) IC50; 10 nM FL MALT1, 200 μM Ac-LRSR-AMC, 50 min pre-incubation, 4 h at RT
full-length MALT1 protein (Strep-MALT1(1-824)-His), sequence (Q9UDY8 whole entry): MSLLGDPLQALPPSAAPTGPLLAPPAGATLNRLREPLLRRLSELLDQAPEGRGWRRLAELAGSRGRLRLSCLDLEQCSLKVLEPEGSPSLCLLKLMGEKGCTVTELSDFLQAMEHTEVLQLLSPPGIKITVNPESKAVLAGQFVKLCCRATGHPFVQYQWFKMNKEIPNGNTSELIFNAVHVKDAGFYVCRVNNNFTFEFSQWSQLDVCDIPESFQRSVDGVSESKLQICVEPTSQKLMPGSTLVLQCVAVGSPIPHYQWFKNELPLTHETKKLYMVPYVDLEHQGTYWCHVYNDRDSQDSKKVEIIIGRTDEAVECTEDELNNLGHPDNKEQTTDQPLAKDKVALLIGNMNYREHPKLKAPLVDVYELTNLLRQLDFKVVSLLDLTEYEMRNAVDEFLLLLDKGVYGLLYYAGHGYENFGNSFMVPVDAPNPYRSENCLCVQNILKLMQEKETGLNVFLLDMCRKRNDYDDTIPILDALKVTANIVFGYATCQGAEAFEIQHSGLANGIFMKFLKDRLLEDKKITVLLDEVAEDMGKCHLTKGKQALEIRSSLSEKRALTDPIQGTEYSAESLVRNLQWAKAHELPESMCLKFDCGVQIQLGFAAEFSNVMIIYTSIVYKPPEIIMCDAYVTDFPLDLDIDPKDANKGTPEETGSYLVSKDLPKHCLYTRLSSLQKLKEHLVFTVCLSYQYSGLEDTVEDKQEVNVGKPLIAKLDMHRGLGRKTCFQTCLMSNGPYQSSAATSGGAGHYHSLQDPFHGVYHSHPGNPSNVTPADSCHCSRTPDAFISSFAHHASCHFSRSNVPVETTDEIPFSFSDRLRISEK
Description: From this an ICso value (inhibitory concentration causing 50% inhibition) can be obtained.

[3] = system: IL10 secretion, OCI-LY3 cells; experiment: Human IL10 Mesoscale assay (OCI-LY3); type: cell-based; settings: 24 h incubation

| SMILES | IC50 [1] [nM] | IC50 [2] [nM] | IC50 [3] [nM] |
| --- | --- | --- | --- |
| NC(=O)c1ccc(-n2ncc(C(=O)Nc3cnc(-n4nccn4)c(Cl)c3)c2C(F)(F)F)n2ccnc12 [Cpd 1, 5-(4-((5-chloro-6-(2H-1,2,3-triazol-2-yl)pyridin-3-yl)carbamoyl)-5-(trifluoromethyl)-1H-pyrazol-1-yl)imidazo[1,2-a]pyridine-8-carboxamide] | 91 | 49 | 87 |
| Cc1ccc(-n2ncc(C(=O)Nc3cnc(-n4nccn4)c(Cl)c3)c2C(F)(F)F)n2ccnc12 [Cpd 7, N-(5-chloro-6-(2H-1,2,3-triazol-2-yl)pyridin-3-yl)-1-(8-methylimidazo[1,2-a]pyridin-5-yl)-5-(trifluoromethyl)-1H-pyrazole-4-carboxamide] | 219 | 120 | 65 |
| O=C(Nc1cnc(-n2cccn2)c(Cl)c1)c1cnn(-c2ccc(F)c3nccn23)c1C(F)(F)F [Cpd 3, N-(5-chloro-6-(1H-pyrazol-1-yl)pyridin-3-yl)-1-(8-fluoroimidazo[1,2-a]pyridin-5-yl)-5-(trifluoromethyl)-1H-pyrazole-4-carboxamide] | 151 | 251 | 114 |
| CS(=O)(=O)c1ncc(NC(=O)c2cnn(-c3ccc(F)c4nccn34)c2C(F)(F)F)cc1C(F)(F)F [Cpd 5, 1-(8-fluoroimidazo[1,2-a]pyridin-5-yl)-N-(6-(methylsulfonyl)-5-(trifluoromethyl)pyridin-3-yl)-5-(trifluoromethyl)-1H-pyrazole-4-carboxamide] | 281 | 372 | 371 |

The remaining lines, values ahead:

| IC50 [1] [nM] | IC50 [2] [nM] | IC50 [3] [nM] | SMILES |
| --- | --- | --- | --- |
| 42 | 25 | 41 | NC(=O)c1ccc(-n2ncc(C(=O)Nc3cnc(-n4nccn4)c(Cl)c3)c2C(F)(F)F)c2ccnn12 [Cpd 16, 4-(4-((5-chloro-6-(2H-1,2,3-triazol-2-yl)pyridin-3-yl)carbamoyl)-5-(trifluoromethyl)-1H-pyrazol-1-yl)pyrazolo[1,5-a]pyridine-7-carboxamide] |
| 115 | 209 | 501 | O=C(Nc1ccnc(C(F)(F)F)c1)c1cnn(-c2ccc(Cl)n3nccc23)c1C(F)(F)F [Cpd 14, 1-(7-chloropyrazolo[1,5-a]pyridin-4-yl)-5-(trifluoromethyl)-N-(2-(trifluoromethyl)pyridin-4-yl)-1H-pyrazole-4-carboxamide] |
| 200 | 36 | 115 | N#Cc1ccc(-n2ncc(C(=O)Nc3cnc([C@@H]4CCCO4)c(Cl)c3)c2C(F)(F)F)c2ccnn12 (single isomer, unassigned) [Cpd 23, (*S)—N-(5-chloro-6-(tetrahydrofuran-2-yl)pyridin-3-yl)-1-(7-cyanopyrazolo[1,5-a]pyridin-4-yl)-5-(trifluoromethyl)-1H-pyrazole-4-carboxamide] |
| 138 | 89 | 65 | N#Cc1ccc(-n2ncc(C(=O)Nc3ccnc(C(F)(F)F)c3)c2C(F)(F)F)c2ccnn12 [Cpd 11, 1-(7-cyanopyrazolo[1,5-a]pyridin-4-yl)-5-(trifluoromethyl)-N-(2-(trifluoromethyl)pyridin-4-yl)-1H-pyrazole-4-carboxamide] |
